According to patent US11964956B2, “Cannabinergic compounds and uses thereof” (Northeastern University, priority 2012, dated 2024):
Like-named read-outs stand apart in the source and are kept apart here.

What was measured:
mCB2 = molecular target: T1, mCB2 (Mus musculus, UniProt P47936); assay: mCB2 competition-equilibrium binding with [3H]CP-55,940, HEK293 membranes
T1 construct: expressed in transfected cells; host or cells: HEK293
Procedure: (§1) HEK293 cells expressing hCB1 or hCB2 or mCB2 receptor are used for membrane preparations according to Abadji et al. The resulting pellet is resuspended in 10 mM Tris-chloride, pH 7.4, with 5 mM MgCl2 and 2 mM EDTA (TME), rapidly frozen in liquid nitrogen and stored at −80° C. for no longer than two months. Protein content is assayed by using the Bio-Rad protein assay according to the manufacturer's protocol.
(§2) All the cannabinoids discussed in this invention are tested for their ability to bind to CB 1 and CB2 receptors using membranes from rat brain or HEK293 cells expressing either mCB2 or hCB2, respectively via competition-equilibrium binding using [^3H]CP-55,940. Results are analyzed using nonlinear regression to determine ligand IC50 (Prism by GraphPad Software, Inc.), and Ki values are calculated from the IC50. IC50 and Ki values are determined from at least three independent experiments.
(§3) Some disclosed compounds were tested for CB1 and CB2 receptor binding affinity, which can be represented by a Ki value. The Ki value is the affinity constant and describes the affinity of the compound for the receptor. […] A detailed description of the methods used to test binding affinity of compounds is given in US 2007/0135388 and in Papahatjis, et al., J. Med. Chem. (2007) 4048, the content of each of which is hereby incorporated by reference.

hCB2 = molecular target: T2, hCB2 (Homo sapiens, UniProt P34972); assay: hCB2 competition-equilibrium binding with [3H]CP-55,940, HEK293 membranes
T2 construct: expressed in transfected cells; host or cells: HEK293
Procedure: as §1, §2, §3

rCB1 [1] = molecular target: T3, rCB1 (Rattus norvegicus, UniProt P20272); assay: rCB1 competition-equilibrium binding with [3H]CP-55,940, rat brain membranes; set-up: Frozen rat brains (CB1 source) are obtained from Pel-Freeze Biologicals; tissue Pel-Freeze Biologicals (Rogers, AK); host or cells: rat brain membranes
Procedure: Frozen rat brains (CB1 source) are obtained from Pel-Freeze Biologicals (Rogers, AK) and stored at −80° C. until use. Membranes are prepared according to the method described by Dodd et al. and used in our laboratory as reported.
as §2, §3

rCB1 [2] = molecular target: T3, rCB1; assay: cAMP assay, rCB1; type: cell-based
Procedure: Functional characterization of some of the disclosed compounds was performed by using the cyclic adenosine monophosphate (cAMP) assay. The functional potency of the compound in the cAMP assay is represented by the EC50 value. The lower the EC50 value, the higher the functional potency. A detailed description of the cyclic adenosine monophosphate (cAMP) assay is given in Nikas et al. J. Med. Chem. (2010) 6996, the content of which is incorporated herein by reference. Table 10 lists the EC50 values of certain compounds of Formula (Je) in the cAMP assay.

T3 sequence (P20272 whole entry): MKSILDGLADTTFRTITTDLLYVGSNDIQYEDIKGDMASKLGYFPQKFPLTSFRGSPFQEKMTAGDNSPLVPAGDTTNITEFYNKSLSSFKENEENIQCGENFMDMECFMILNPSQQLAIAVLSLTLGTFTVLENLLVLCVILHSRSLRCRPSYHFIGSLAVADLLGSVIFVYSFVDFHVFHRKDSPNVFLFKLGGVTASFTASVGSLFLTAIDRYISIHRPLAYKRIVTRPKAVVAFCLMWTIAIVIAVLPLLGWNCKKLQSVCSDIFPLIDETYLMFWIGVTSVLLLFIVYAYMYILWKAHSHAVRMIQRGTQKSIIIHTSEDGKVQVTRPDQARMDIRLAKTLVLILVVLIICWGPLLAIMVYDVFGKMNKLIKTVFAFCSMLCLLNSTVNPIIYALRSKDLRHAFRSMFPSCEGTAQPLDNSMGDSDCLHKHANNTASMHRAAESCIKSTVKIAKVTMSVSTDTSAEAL
T1 sequence (P47936 whole entry): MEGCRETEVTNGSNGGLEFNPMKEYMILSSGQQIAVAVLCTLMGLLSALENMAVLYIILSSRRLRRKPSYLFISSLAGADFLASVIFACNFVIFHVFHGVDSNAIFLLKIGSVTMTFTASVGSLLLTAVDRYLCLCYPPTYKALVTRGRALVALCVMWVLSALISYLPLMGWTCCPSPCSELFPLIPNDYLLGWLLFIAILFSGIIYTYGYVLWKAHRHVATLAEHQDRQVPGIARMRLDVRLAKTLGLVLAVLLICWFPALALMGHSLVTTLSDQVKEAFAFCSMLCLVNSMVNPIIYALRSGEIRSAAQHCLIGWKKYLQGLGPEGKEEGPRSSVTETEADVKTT
T2 sequence (P34972 whole entry): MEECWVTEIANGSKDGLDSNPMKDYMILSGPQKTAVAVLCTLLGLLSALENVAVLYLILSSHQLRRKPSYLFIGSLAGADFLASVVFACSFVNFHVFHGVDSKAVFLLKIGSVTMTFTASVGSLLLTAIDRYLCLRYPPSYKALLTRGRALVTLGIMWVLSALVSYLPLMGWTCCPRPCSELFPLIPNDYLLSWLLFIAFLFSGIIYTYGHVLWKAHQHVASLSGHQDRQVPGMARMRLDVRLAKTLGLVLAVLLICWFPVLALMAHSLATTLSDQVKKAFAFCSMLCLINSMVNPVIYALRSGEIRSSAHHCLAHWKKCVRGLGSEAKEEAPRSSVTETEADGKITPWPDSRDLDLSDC

| Compound | Ki (mCB2) [nM] | Ki (hCB2) [nM] | Ki (rCB1 [1]) [nM] | other results |
| --- | --- | --- | --- | --- |
| CC1=CC[C@@H]2[C@@H](C1)c1c(O)cc(C(C)(C)C(=O)OCCCN3CCOCC3)cc1OC2(C)C [Compound 1.25, 3-morpholinopropyl 2-((6aR, 10aR)-1-hydroxy-6,6,9-trimethyl-6a,7, 10, 10a-tetrahydro-6H-benzo[c]chromen-3-yl)-2-methylpropanoate] | 104 |  |  |  |
| CCCCOC(=O)C(C)(C)c1cc(O)c2c(c1)OC(C)(C)[C@@H]1CC[C@H](O)C[C@@H]21 [Compound 3.8, Butyl-2-((6aR,9S, 10aR)-6a,7,8,9, 10, 10a-hexahydro-1,9-dihydroxy-6,6-dimethyl-6H-benzo[c]chromen-3-yl)-2-methylpropanoate] | 0.6 |  |  |  |
| CC(C)(C(=O)OCCCC#N)c1cc(O)c2c(c1)OC(C)(C)[C@@H]1CC=C(CO)C[C@@H]21 [Compound 2.5] | 1 | 1 | 1 |  |
| CCCOC(=O)C(C)(C)c1cc(O)c2c(c1)OC(C)(C)[C@@H]1CCC(=O)C[C@@H]21 [Compound 34b, Propyl 2-((6aR,10aR)-1-hydroxy-6,6-dimethyl-9-oxo-6a,7,8,9,10,10a-hexahydro-6H-benzo[c]chromen-3-yl)-2-methylpropanoate] | 32 ± 5.2 | 8.3 ± 3.1 | 4.8 ± 0.8 |  |
| COC(=O)CCC(C)(C)c1cc(O)c2c(c1)OC(C)(C)[C@@H]1CCC(=O)C[C@@H]21 [Compound 23, Methyl-4-((6aR,10aR)-1-hydroxy-6,6-dimethyl-9-oxo-6a,7,8,9,10,10a-hexahydro-6H-benzo[c]chromen-3-yl)-4-methylpentanoate] | 540 ± 46.7 | 560 ± 64.3 | 270 ± 34.6 |  |
| CCCCOC(=O)C1(c2cc(O)c3c(c2)OC(C)(C)C2CCC(=O)CC32)CCCC1 (centres unmarked) [AM8137] |  |  | 0.4 ± 0.01 |  |
| CCOC(=O)C(C)(C)c1cc(O)c2c(c1)OC(C)(C)[C@@H]1CCC(=O)C[C@@H]21 [Compound 34a, Ethyl 2-((6aR,10aR)-1-hydroxy-6,6-dimethyl-9-oxo-6a,7,8,9,10,10a-hexahydro-6H-benzo[c]chromen-3-yl)-2-methylpropanoate] | 89.7 ± 18.1 | 67.5 ± 13.4 | 36.7 ± 5.6 |  |
| CC1(C)Oc2cc(C3(C(=O)O)CCCC3)cc(O)c2C2CC(=O)CCC21 (centres unmarked) [AM8139] | > 1000 | > 1000 | > 1000 |  |
| CC(C)(C(=O)OCCCI)c1cc(O)c2c(c1)OC(C)(C)[C@@H]1CCC(=O)C[C@@H]21 [Compound 7, 3-Iodopropyl-2-((6aR,10aR)-1-hydroxy-6,6-dimethyl-9-oxo-6a,7,8,9,10,10a-hexahydro-6H-benzo[c]chromen-3-yl)-2-methylpropanoate] | 1.2 ± 0.6 | 5.3 ± 0.9 | 0.1 ± 0.04 |  |
| CCCCCCC(C)(C)c1cc(O)c2c(c1)OC(C)(C)[C@@H]1CCOC(=O)C[C@@H]21 [Compound 3.11, (5aR, 11bR)-11-hydroxy-6,6-dimethyl-9-(2-methyloctan-2-yl)-4,5,5a,6-tetrahydro-1H-oxepino[4,5-c]chromen-2(11bH)-one] | 8 |  |  |  |
| CC1=CC[C@H]2[C@@H](C1)c1c(O)cc(C(C)(C)C(=O)OCCCCC#N)cc1OC2(C)C [Compound 1.3, 4-cyanobutyl-2-((6aS, 10aR)-6a, 7, 10, 10a-tetrahydro-1-hydroxy-6,6,9-trimethyl-6H-benzo[c]chromen-3-yl)-2-methylpropanoate] |  |  |  | Ki (mCB2; HEK293 cells expressing mCB2, Tables 5-8, read-out: mCB2 Ki): 0.5 nM |
| CC(C)(C(=O)O)c1cc(O)c2c(c1)OC(C)(C)[C@@H]1CCC(=O)C[C@@H]21 [Compound 32, 2-[(6aR,10aR)-6a,7,8,9,10,10a-Hexahydro-1-hydroxy-6,6-dimethyl-9-oxo-6H-benzo[c]chromen-3-yl]-2-methylpropanoic acid] | > 1000 | > 1000 | > 1000 |  |
| CCC[C@H](C)OC(=O)C(C)(C)c1cc(O)c2c(c1)OC(C)(C)[C@@H]1CCC(=O)C[C@@H]21 [Compound 34e, (S)-pentan-2-yl 2-((6aR,10aR)-1-hydroxy-6,6-dimethyl-9-oxo-6a,7,8,9,10,10a-hexahydro-6H-benzo[c]chromen-3-yl)-2-methylpropanoate] | 54 ± 10.6 | 12.4 ± 2.5 | 3 ± 0.5 | EC50 (rCB1 [2]): 2.9 nM; Emax (rCB1 [2]; cAMP assay): 58% |
| CC(C)(C(=O)OCCCN1CCOCC1)c1cc(O)c2c(c1)OC(C)(C)[C@@H]1CCC(=O)C[C@@H]21 [Compound 34g, 3-Morpholinopropyl 2-((6aR,10aR)-1-hydroxy-6,6-dimethyl-9-oxo-6a,7,8,9,10,10a-hexahydro-6H-benzo[c]chromen-3-yl)-2-methylpropanoate] |  |  |  | Ki (mCB2; Table 9, Formula (Ie), read-out: mCB2 (Ki)): 91.7 ± 20.4 nM; Ki (hCB2; Table 9, Formula (Ie), read-out: hCB2 (Ki)): 18.2 ± 4.1 nM; Emax (rCB1 [2]; cAMP assay): 78%; EC50 (rCB1 [2]; cAMP assay, read-out: rCB1 EC50): 4.2 nM; Ki (rCB1 [1]; Table 9, Formula (Ie), read-out: rCB1 (Ki)): 17 ± 3.5 nM |
| CCCCNC(=O)C(C)(C)c1cc(O)c2c(c1)OC(C)(C)[C@@H]1CCC(=O)C[C@@H]21 [Compound 34i, N-Butyl-2-((6aR,10aR)-1-hydroxy-6,6-dimethyl-9-oxo-6a,7,8,9,10,10a-hexahydro-6H-benzo[c]chromen-3-yl)-2-methylpropanamide] | > 1000 | > 1000 | 115 ± 21.6 |  |
| CC(C)(C(=O)OCCCCO[N+](=O)[O-])c1cc(O)c2c(c1)OC(C)(C)[C@@H]1CCC(=O)C[C@@H]21 [Compound 39, 4-(Nitrooxy)butyl 2-((6aR,10aR)-1-hydroxy-6,6-dimethyl-9-oxo-6a,7,8,9,10,10a-hexahydro-6H-benzo[c]chromen-3-yl)-2-methylpropanoate] | 2.2 | 2.6 | 0.2 |  |
| CC(C)(C(=O)OCCCCN=C=S)c1cc(O)c2c(c1)OC(C)(C)[C@@H]1CCC(=O)C[C@@H]21 [Compound 38, 4-Isothiocyanatobutyl 2-((6aR,10aR)-1-hydroxy-6,6-dimethyl-9-oxo-6a,7,8,9,10,10a-hexahydro-6H-benzo[c]chromen-3-yl)-2-methylpropanoate] | 21.4 | 5.2 | 4.9 |  |
| CC(C)(C(=O)OCCCCBr)c1cc(O)c2c(c1)OC(C)(C)[C@@H]1CCC(=O)C[C@@H]21 [Compound 36, 4-Bromobutyl 2-((6aR,10aR)-1-hydroxy-6,6-dimethyl-9-oxo-6a,7,8,9,10,10a-hexahydro-6H-benzo[c]chromen-3-yl)-2-methylpropanoate] | 1.8 |  | 0.002 |  |
| CCC[C@@H](C)OC(=O)C(C)(C)c1cc(O)c2c(c1)OC(C)(C)[C@@H]1CCC(=O)C[C@@H]21 [Compound 34f, (R)-Pentan-2-yl 2-((6aR,10aR)-1-hydroxy-6,6-dimethyl-9-oxo-6a,7,8,9,10,10a-hexahydro-6H-benzo[c]chromen-3-yl)-2-methylpropanoate] | 36.4 ± 12.4 | 7 ± 2.1 | 4 ± 0.7 | EC50 (rCB1 [2]): 94.5 nM; Emax (rCB1 [2]; cAMP assay): 71% |
| CCCCCCOC(=O)C(C)(C)c1cc(O)c2c(c1)OC(C)(C)[C@@H]1CCC(=O)C[C@@H]21 [Compound 34d, Hexyl 2-((6aR,10aR)-1-hydroxy-6,6-dimethyl-9-oxo-6a,7,8,9,10,10a-hexahydro-6H-benzo[c]chromen-3-yl)-2-methylpropanoate] | 30 ± 7.3 | 15.1 ± 2.2 | 5.9 ± 1.2 |  |
| CC(C)(CC(=O)O)c1cc(O)c2c(c1)OC(C)(C)[C@@H]1CCC(=O)C[C@@H]21 [Compound 19, 3-((6aR,10aR)-1-Hydroxy-6,6-dimethyl-9-oxo-6a,7,8,9,10,10a-hexahydro-6H-benzo[c]chromen-3-yl)-3-methylbutanoic acid] | > 1000 | > 1000 | > 1000 |  |
| CC(C)(C(=O)OCCCCN=[N+]=[N-])c1cc(O)c2c(c1)OC(C)(C)[C@@H]1CCC(=O)C[C@@H]21 [Compound 37, 4-Azidobutyl 2-((6aR,10aR)-1-hydroxy-6,6-dimethyl-9-oxo-6a,7,8,9,10,10a-hexahydro-6H-benzo[c]chromen-3-yl)-2-methylpropanoate] | 4.5 | 1.7 | 1.7 |  |
| CCOC(=O)C(C)(C)c1cc(O)c(-c2cccc(C#N)c2)c(O)c1 [Compound 4.2, Ethyl 2-(3′-cyano-2,6-dihydroxybiphenyl-4-yl)-2-methylpropanoate] |  |  |  | Ki (rCB1 [1]; rat brain membranes, Tables 5-8, read-out: rCB1 Ki): 3.66 nM |
